Laboratory results published in BindingDB's records for patent US20240158369 (Wigen Biomedicine Technology (Shanghai), 2024).

Target: Wee1-like protein kinase (Homo sapiens, UniProt P30291)
Experiment: In-Vitro Assay
Method: The inhibitory effect of the compounds on the enzyme activity of recombinant protein Wee-1 was determined by HTRF. The procedures are as follows: After DMSO or serially diluted compounds (up to 200 nM, 1:5 diluted) and recombinant proteins were co-incubated in a kinase buffer at 37° C. for 30 min before Fluorescein-PolyGAT and ATP were added, and the reaction was initiated by addition of a substrate. After incubation at room temperature for 90 min, an antibody and a detection solution were added, and after further incubation at room temperature for 60 min, fluorescence values were detected (excitation wavelength: 340 nm, emission wavelengths: 495 and 520 nm). The 520 nm/495 nm fluorescence intensity ratio value was calculated, and compared with that of the DMSO group, and then the inhibition percentages and IC50 values of the compounds were calculated.

Sequence of Wee1-like protein kinase (P30291 whole entry): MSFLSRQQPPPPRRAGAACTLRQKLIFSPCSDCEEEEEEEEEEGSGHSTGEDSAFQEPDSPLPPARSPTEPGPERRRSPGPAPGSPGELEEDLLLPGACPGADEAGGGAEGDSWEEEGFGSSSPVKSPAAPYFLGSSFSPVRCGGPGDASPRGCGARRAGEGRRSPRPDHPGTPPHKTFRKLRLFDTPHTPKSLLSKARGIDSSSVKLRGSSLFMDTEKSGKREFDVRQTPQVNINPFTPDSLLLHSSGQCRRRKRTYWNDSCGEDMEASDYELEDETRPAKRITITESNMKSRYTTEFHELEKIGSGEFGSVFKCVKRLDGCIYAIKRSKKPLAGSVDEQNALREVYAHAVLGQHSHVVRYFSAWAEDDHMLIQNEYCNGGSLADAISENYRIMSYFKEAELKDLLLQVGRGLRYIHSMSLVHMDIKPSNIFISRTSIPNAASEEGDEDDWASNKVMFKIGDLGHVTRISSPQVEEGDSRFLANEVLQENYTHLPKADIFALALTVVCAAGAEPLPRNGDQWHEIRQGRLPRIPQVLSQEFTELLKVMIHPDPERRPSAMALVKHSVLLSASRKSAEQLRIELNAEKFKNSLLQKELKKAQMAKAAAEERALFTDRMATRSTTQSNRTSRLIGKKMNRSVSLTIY

CC(C)Cc1cc(Nc2ncc(C#N)c(Nc3cccc(N=S(C)(C)=O)n3)n2)cc2c1CCN(C)C2 [US20240158369, Compound 87]
IC50: < 10 nM
